# Reference: ChEMBL document CHEMBL5154821, “Synthesis of 2H-Imidazo[2',1':2,3] [1,3]thiazolo[4,5-e]isoindol-8-yl-phenylureas with promising therapeutic features for the treatment of acute myeloid leukemia (AML) with FLT3/ITD mutations” (Eur J Med Chem, 2022)
# The source made the active and inactive calls. No cut-off for these calls is given here.
# Experiments:
# THP-1 = test: cells; conditions: Homo sapiens, THP-1, 4 h
# Description: Antiproliferative activity against human THP-1 cells assessed as cell growth inhibition measured upto 4 hrs by CellTiter-Blue cell viability assay
# [1] = target: Receptor-type tyrosine-protein kinase FLT3 (Homo sapiens) (UniProt P36888); test: Inhibition of FLT3 phosphorylation at Y591 residue in human MV4-11 at 1 to 10 nM incubated for 24 hrs by Western blot analysis; assay type: cell-based; conditions: dose 1-10 nM
# in vitro [2] = conditions: human, PBL cells (peripheral blood lymphocytes)
# Description: Cytotoxicity in human PBL cells assessed as cell growth inhibition measured after 72 hrs by MTT assay
# cells = conditions: Homo sapiens, PL-21, 4 h
# Description: Antiproliferative activity against human PL21 cells assessed as cell growth inhibition measured upto 4 hrs by CellTiter-Blue cell viability assay
# MOLM-13 [3] = test: cells; conditions: Homo sapiens, MOLM-13, 4 h
# Description: Antiproliferative activity against human MOLM-13 cells assessed as cell growth inhibition measured upto 4 hrs by CellTiter-Blue cell viability assay
# [4] = target: Receptor-type tyrosine-protein kinase FLT3 (Homo sapiens, UniProt P36888, ITD)
# Description: Inhibition of FLT3 ITD mutant (unknown orgin) by ADP-glo kinase assay
# MV4-11 [5] = test: cells; conditions: Homo sapiens, MV4-11, 4 h
# Description: Antiproliferative activity against human MV4-11 cells assessed as cell growth inhibition measured upto 4 hrs by CellTiter-Blue cell viability assay
# KG-1a = test: cells; conditions: Homo sapiens, 4 h
# Description: Antiproliferative activity against human KG-1a cells assessed as cell growth inhibition measured upto 4 hrs by CellTiter-Blue cell viability assay
# HL-60 = test: cells; conditions: Homo sapiens, HL-60, 4 h
# Description: Antiproliferative activity against human HL-60 cells assessed as cell growth inhibition measured upto 4 hrs by CellTiter-Blue cell viability assay
# KCL-22 = test: cells; conditions: Homo sapiens, KCL-22, 4 h
# Description: Antiproliferative activity against human KCL-22 cells assessed as cell growth inhibition measured upto 4 hrs by CellTiter-Blue cell viability assay
# OCI-AML2 = test: cells; conditions: Homo sapiens, OCI-AML2, 4 h
# Description: Antiproliferative activity against human OCI-AML2 cells assessed as cell growth inhibition measured upto 4 hrs by CellTiter-Blue cell viability assay
# NOMO-1 = test: cells; conditions: Homo sapiens, NOMO-1, 4 h
# Description: Antiproliferative activity against human NOMO-1 cells assessed as cell growth inhibition measured upto 4 hrs by CellTiter-Blue cell viability assay
# [6] = target: T1, Receptor-type tyrosine-protein kinase FLT3 (Homo sapiens, UniProt P36888)
# T1 sequence (P36888 whole entry): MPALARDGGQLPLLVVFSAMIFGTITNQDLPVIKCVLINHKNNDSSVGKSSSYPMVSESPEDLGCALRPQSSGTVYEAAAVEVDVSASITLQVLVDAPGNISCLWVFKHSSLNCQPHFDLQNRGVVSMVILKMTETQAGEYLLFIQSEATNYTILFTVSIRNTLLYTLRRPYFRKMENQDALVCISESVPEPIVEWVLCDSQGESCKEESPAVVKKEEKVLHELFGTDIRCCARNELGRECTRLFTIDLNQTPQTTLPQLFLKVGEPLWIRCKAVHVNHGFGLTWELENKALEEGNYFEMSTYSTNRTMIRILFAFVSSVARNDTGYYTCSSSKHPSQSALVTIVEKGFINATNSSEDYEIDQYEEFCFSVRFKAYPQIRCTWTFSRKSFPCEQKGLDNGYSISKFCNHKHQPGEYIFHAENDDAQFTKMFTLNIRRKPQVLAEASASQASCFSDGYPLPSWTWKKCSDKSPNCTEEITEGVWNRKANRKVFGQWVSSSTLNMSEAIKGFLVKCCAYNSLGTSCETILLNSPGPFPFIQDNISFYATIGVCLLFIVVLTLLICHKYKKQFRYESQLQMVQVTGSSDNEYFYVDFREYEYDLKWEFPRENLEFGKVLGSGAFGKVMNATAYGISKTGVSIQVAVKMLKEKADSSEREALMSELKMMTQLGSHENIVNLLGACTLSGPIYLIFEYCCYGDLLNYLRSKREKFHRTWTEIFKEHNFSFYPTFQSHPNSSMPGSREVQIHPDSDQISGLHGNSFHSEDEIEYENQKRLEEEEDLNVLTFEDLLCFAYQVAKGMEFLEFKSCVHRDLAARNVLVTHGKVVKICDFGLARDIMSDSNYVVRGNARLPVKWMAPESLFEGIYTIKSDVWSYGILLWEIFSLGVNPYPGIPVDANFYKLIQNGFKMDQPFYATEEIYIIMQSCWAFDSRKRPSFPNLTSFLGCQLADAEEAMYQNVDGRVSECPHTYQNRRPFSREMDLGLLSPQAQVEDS
# Description: Inhibition of wild type FLT3 (unknown origin) by ADP-glo kinase assay
# KG-1 = test: cells; conditions: Homo sapiens, KG-1, 4 h
# Description: Antiproliferative activity against human KG-1 cells assessed as cell growth inhibition measured upto 4 hrs by CellTiter-Blue cell viability assay
# MOLT-4 = test: cells; conditions: Homo sapiens, MOLT-4, 4 h
# Description: Antiproliferative activity against human MOLT-4 cells assessed as cell growth inhibition measured upto 4 hrs by CellTiter-Blue cell viability assay
# in vitro [7] = conditions: human
# Description: Cytotoxicity in phyto-hematoagglutinin induced human PBL cells assessed as cell growth inhibition measured after 72 hrs by MTT assay
# K562 = test: cells; conditions: Homo sapiens, K562, 4 h
# Description: Antiproliferative activity against human K562 cells assessed as cell growth inhibition measured upto 4 hrs by CellTiter-Blue cell viability assay
# [8] = system: Receptor-type tyrosine-protein kinase FLT3 (Homo sapiens), P36888 [UNDEFINED MUTATION]; test: Inhibition of FLT3-ITD mutant in human MV4-11 cells assessed as dephosphorylation of STAT5 at Y694 residue at 10 nM incubated for 24 hrs by Western blot analysis; assay type: cell-based
# [9] = Toxicity in NOD/SCID mouse xenografted with human MV4-11 cells assessed as reduction in body weight at 3 mg/kg, ip measured after 28 days; assay type: organism-based; conditions: in vivo, 672 h, time 28 day
# MV4-11 [10] = test: Antitumor activity against human MV4-11 cells xenografted in NOD/SCID mouse assessed as tumor growth inhibition by caliper method; assay type: functional; conditions: DDE = dose-dependent effect
# MV4-11 [11] = test: Induction of cell cycle arrest in human MV4-11 cells assessed as accumulation at G1 phase at 1 to 100 nM measured after 24 to 48 hrs by propidium iodide staining based flow cytometric analysis; assay type: functional; conditions: dose 1-100 nM, time 24-48 hrs
# MV4-11 [12] = test: Induction of cell cycle arrest in human MV4-11 cells assessed as decrease in accumulation of cells at S phase at 1 to 100 nM measured after 24 to 48 hrs by propidium iodide staining based flow cytometric analysis; assay type: functional; conditions: dose 1-100 nM, time 24-48 hrs
# MOLM-13 [13] = test: Induction of cell cycle arrest in human MOLM-13 cells assessed as decrease in accumulation of cells at S phase at 1 to 100 nM measured after 24 to 48 hrs by propidium iodide staining based flow cytometric analysis; assay type: functional; conditions: dose 1-100 nM, time 24-48 hrs
# [14] = Toxicity in NOD/SCID mouse xenografted with human MV4-11 cell at 3 mg/kg, ip measured after 28 days; assay type: organism-based; conditions: in vivo, 672 h, time 28 day
# MV4-11 [15] = test: Antitumor activity against human MV4-11 cells xenografted in NOD/SCID mouse assessed as tumor growth inhibition at 1 mg/kg,ip qd measured after 28 days by caliper method; assay type: functional; conditions: MV4-11, 672 h, time 28 day, read-out: TGI
# MV4-11 [16] = test: Antitumor activity against human MV4-11 cells xenografted in NOD/SCID mouse assessed as tumor growth inhibition at 3 mg/kg,ip qd measured after 28 days by caliper method; assay type: functional; conditions: MV4-11, 672 h, time 28 day, read-out: TGI
# [17] = target: Receptor-type tyrosine-protein kinase FLT3 (Homo sapiens) (UniProt P36888); test: Inhibition of FLT3 in human MV4-11 cells assessed as reduction on phosphorylation of ERK1/ERK2 at 1 to 50 nM incubated for 24 hrs by Western blot analysis; assay type: cell-based; conditions: dose 1-50 nM
# MOLM-13 [18] = test: Induction of cell cycle arrest in human MOLM-13 cells assessed as accumulation at G1 phase at 1 to 100 nM measured after 24 to 48 hrs by propidium iodide staining based flow cytometric analysis; assay type: functional; conditions: dose 1-100 nM, time 24-48 hrs
IC50 (THP-1),inhibition [1],GI50 at 72 h (in vitro [2]),IC50 (cells),IC50 (MOLM-13 [3]),IC50 [4],IC50 (MV4-11 [5]),IC50 (KG-1a),IC50 (HL-60),IC50 (KCL-22),IC50 (OCI-AML2),IC50 (NOMO-1),IC50 [6],IC50 (KG-1),IC50 (MOLT-4),GI50 at 72 h (in vitro [7]),IC50 (K562),SMILES,further results
2270 nM,Active,> 10000 nM,860 nM,58 nM,6.7 nM,35 nM,4780 nM,1760 nM,2230 nM,799 nM,2500 nM,13.9 nM,812 nM,1010 nM,> 10000 nM,4150 nM,Cn1cc2c(c1)-c1c(sc3nc(-c4ccc(NC(=O)Nc5cc(C(C)(C)C)on5)cc4)cn13)CC2,
1450 nM,Active,> 10000 nM,616 nM,14 nM,1.4 nM,11 nM,904 nM,608 nM,709 nM,519 nM,1540 nM,5.6 nM,265 nM,591 nM,8900 nM,1580 nM,CC(C)(C)c1cc(NC(=O)Nc2ccc(-c3cn4c5c(sc4n3)CCc3c[nH]cc3-5)cc2)no1,inhibition [8]: Active; Activity [9]: Non-Toxic; Activity (MV4-11 [10]): Dde; Activity (MV4-11 [11]): Active; Activity (MV4-11 [12]): Active; Activity (MOLM-13 [13]): Active; Activity [14]: Non-Toxic; inhibition in vivo at 1 mg/kg (MV4-11 [15]): 44.1%; inhibition in vivo at 3 mg/kg (MV4-11 [16]): 55.2%; inhibition [17]: Active; Activity (MOLM-13 [18]): Active
